Experimental data published in US6903132B2, “Non-peptide GnRH agents, pharmaceutical compositions and methods for their use” (Agouron Pharmaceuticals, Inc., priority 2002, dated 2005).
pKi: −log10 of the molar value. Where “and” joins values, the source holds several entries; their conditions need not be identical. Equal entries are not always repeated.

Key:
[1] = In vitro metabolism: disappearance of parent compound in liver microsomes; format: in vitro ADME; conditions: human liver microsomes; 5 uM compound, 0.5 mg/ml microsomal protein, 2 mM NADPH, 30 minutes at 37° C.
Experimental: (§1) Human, rat, dog, and monkey liver microsomes are isolated by differential centrifugation. Specimens of human liver were obtained from the International Institute for the Advancement of Medicine (Scranton, Pa.). The disappearance of the parent compound is studied in a mixture containing 5 uM compound, 0.5 mg/ml microsomal protein, and 2 mM NADPH in 50 mM K Phosphate buffer, pH 7.4. Samples are incubated for 30 minutes at 37° C. The reaction is terminated by the addition of acetonitrile and compounds analyzed by LC-MS as described above.

[2] = In vitro metabolism: disappearance of parent compound in liver microsomes (female rat); format: in vitro ADME; conditions: 5 uM compound, 0.5 mg/ml microsomal protein, 2 mM NADPH, 30 minutes at 37° C.
Experimental: as §1

[3] = target: T1, mouse GnRH receptors (Mus musculus, UniProt Q01776); assay: Radioligand binding assay: inhibition of binding of 125I-GnRH-A to GnRH receptors (membranes); conditions: Mouse GnRH receptor; competition with 125I-GnRH-A; Ki calculated from IC50 (Cheng et al.)
T1 construct: expressed in transfected cells; host or cells: HEK 293
T1 sequence (Q01776 1-327): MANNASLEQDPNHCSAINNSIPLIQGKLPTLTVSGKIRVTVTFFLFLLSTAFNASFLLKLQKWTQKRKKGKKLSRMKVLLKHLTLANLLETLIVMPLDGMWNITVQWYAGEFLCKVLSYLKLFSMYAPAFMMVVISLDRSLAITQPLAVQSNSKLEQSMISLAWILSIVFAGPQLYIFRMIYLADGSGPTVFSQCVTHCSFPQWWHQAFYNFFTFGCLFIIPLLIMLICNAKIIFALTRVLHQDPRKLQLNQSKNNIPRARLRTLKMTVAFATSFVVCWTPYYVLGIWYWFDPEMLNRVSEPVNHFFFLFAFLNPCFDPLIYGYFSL
Method in brief: (§2)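 Membranes from HEK 293 expressing mouse or human receptor, or rat pituitaries, incubated 1 h at RT with ~0.04–0.06 nM ¹²⁵I-[des-Gly¹⁰,D-Ala⁶]GnRH ethylamide and competitor (0.1–10,000 nM) in HEPES pH 7.4 with MgCl2, EDTA, BSA. Filtration onto PEI-soaked GF/C filters, scintillation counting; Ki from IC50 by Cheng–Prusoff.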

[4] = target: T2, human GnRH receptors (Homo sapiens, UniProt P30968); assay: as above; conditions: Human GnRH receptor; competition with 125I-GnRH-A; Ki calculated from IC50 (Cheng et al.)
T2 construct: expressed in transfected cells; host or cells: HEK 293
T2 sequence (P30968 1-328): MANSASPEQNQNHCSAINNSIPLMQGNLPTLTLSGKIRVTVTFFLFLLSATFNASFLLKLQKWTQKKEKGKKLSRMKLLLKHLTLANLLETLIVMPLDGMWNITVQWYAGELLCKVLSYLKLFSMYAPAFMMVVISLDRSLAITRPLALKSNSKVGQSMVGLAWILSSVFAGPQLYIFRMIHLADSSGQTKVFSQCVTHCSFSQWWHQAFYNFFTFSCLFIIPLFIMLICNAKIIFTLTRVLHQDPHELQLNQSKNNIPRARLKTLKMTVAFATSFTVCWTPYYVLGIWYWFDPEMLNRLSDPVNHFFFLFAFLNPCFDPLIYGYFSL
Method in brief: as §2

[5] = target: T3, rat GnRH receptor (Rattus norvegicus, UniProt P30969); assay: as above; conditions: competition with 125I-GnRH-A, Ki calculated from IC50 (Cheng et al.)
T3 construct: rat pituitaries (Pel Freez Biologicals, Rogers, Ark.) are homogenized in buffer A; tissue Pel Freez Biologicals; host or cells: rat pituitaries
T3 sequence (P30969 1-327): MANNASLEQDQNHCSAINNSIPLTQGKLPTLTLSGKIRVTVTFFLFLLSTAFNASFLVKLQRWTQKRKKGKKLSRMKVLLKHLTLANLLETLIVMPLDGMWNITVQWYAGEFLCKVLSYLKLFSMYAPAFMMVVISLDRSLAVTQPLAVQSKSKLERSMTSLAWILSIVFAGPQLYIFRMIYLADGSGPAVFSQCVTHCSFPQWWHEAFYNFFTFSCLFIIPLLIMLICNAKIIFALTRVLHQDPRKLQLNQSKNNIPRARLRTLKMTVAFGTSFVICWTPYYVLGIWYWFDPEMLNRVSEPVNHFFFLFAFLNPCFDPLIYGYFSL
Method in brief: as §2

[6] = In vitro metabolism: disappearance of parent compound in liver microsomes (male rat); format: in vitro ADME; conditions: 5 uM compound, 0.5 mg/ml microsomal protein, 2 mM NADPH, 30 minutes at 37° C.
Experimental: as §1

[7] = Pharmacokinetics in female rats; format: in vivo, rat; conditions: for FR Fp.o.: AUCp.o./AUCi.v.; for Tmax: rat, plasma, po, dose and vehicle per footnote, read-out: FR Tmax hr
Experimental: Rats (male or female, 200-225 g) are prepared with indwelling jugular vein cannula as described by Harms et al., Applied Physiol. 36:391-398 (1974), and allowed to recover overnight with free access to the standard vivarium chow and water. […] […] The blood samples are withdrawn at specific times, plasma is immediately separated and compound extracted with ethyl acetate. The samples are analyzed by LC-MS using 30-90% gradient of ACN in 50 mM ammonium acetate.
The pharmacokinetic parameters are calculated using WinNonlin software (Scientific Consulting Inc.). The bioavailability is calculated as AUCp.o./AUCi.v., where AUCp.o. and AUCi.v. are areas under the plasma concentration-time curve after oral and i.v. administration, respectively.

[8] = 10 mg/kg as 5 mg/ml solution in 10% cremophor 90% saline
[9] = 10 mg/kg as 5 mg/ml solution in 10% DMSO 105 cremophor 80% saline

## Cc1cc2c(cc1Oc1ccc(C(=O)NNc3cc(C)c4c(C)nn(C)c4n3)o1)C(C)(C)CCC2(C)C [Example F2]
[1]
  Huma % p. 30′: 65%
[2]
  Fem. t % rem. 30′: 22%
[3]
  pKi: 8.09
[4]
  pKi: 8.48
[5]
  pKi: 8.07
[6]
  Male t % p. 30′: 93%
[7]; [8]
  FR Fp.o.: 8%^3
[7]
  Tmax: 30 min

## Cc1cc2c(cc1Cc1ccc(C(=O)NNc3nc(N)nc(C4CC4)n3)o1)C(C)(C)CCC2(C)C [Example C6, N′-(4-amino-6-cyclopropyl-1,3,5-triazin-2-yl)-5-[(3,5,5,8,8-pentamethyl-5,6,7,8-tetrahydro-2-naphthalenyl)methyl]-2-furohydrazide]
[1]
  Huma % p. 30′: 75%
[3]
  pKi: 7.74
[4]
  pKi: 7.38
[5]
  pKi: 8.22
[6]
  Male t % p. 30′: 95%
[7]; [9]
  FR Fp.o.: <1%^2

## Cc1cc2c(cc1Cc1ccc(C(=O)NNc3ccc(C(F)(F)F)cn3)o1)C(C)(C)CCC2(C)C [Example C9, 5-[(3,5,5,8,8-Pentamethyl-5,6,7,8-tetrahydro-2-naphthalenyl)methyl]-N′-[5-(trifluoromethyl)-2-pyridinyl]-2-furohydrazide]
[1]
  Huma % p. 30′: 61%
[2]
  Fem. t % rem. 30′: 14%
[3]
  pKi: 7.52
[4]
  pKi: 7.21
[5]
  pKi: 7.33
[6]
  Male t % p. 30′: 94%

## Cc1cc(C)c(Cc2ccc(C(=O)NNc3cc(C)c4c(C)nn(C)c4n3)o2)c(C)c1Br [Example J2]
[4]
  pKi: 6.26
[7]; [8]
  FR Fp.o.: 6%^3
[7]
  Tmax: 30 min

## Cc1cc2c(cc1Cc1ccc(C(=O)NNc3cc(C)c4c(C)nn(C)c4n3)o1)C(C)(C)OC2(C)C [Example E1, 5-[(1,1,3,3,6-pentamethyl-1,3-dihydro-2-benzofuran-5-yl)methyl]-N′-(1,3,4-trimethyl-1H-pyrazolo[3,4-b]pyridin-6-yl)-2-furohydrazide]
[1]
  Huma % p. 30′: 43%
[2]
  Fem. t % rem. 30′: 27%
[3]
  pKi: 7.92
[4]
  pKi: 8.38
[5]
  pKi: 8.05
[6]
  Male t % p. 30′: 96%
[7]; 10 mg/kg as 5 mg/ml solution in 10% EtOH 10% cremophor 80% saline
  FR Fp.o.: 57%^4
[7]
  Tmax: 60 min

## 5-{[-3,5,5,6,8,8-Hexamethyl-5,6,7,8-tetrahydro-2-naphthalenyl]oxy}-N′-(1,3-dimethyl-1H-pyrazolo[3,4-b]pyridin-6-yl)-2-furo hydrazide [Example F1]
[1]
  Huma % p. 30′: 41%
[2]
  Fem. t % rem. 30′: 24%
[3]
  pKi: 8.46
[4]
  pKi: 8.70
[5]
  pKi: 8.28
[7]; [8]
  FR Fp.o.: 5%^3

## Cc1cc2c(cc1Cc1ccc(C(=O)NNc3ccc4ccccc4n3)o1)C(C)(C)CCC2(C)C [Example C5, 5-[(3,5,5,8,8-Pentamethyl-5,6,7,8-tetrahydro-2-naphthalenyl)methyl]-N′-(2-quinolinyl]-2-furohydrazide]
[1]
  Huma % p. 30′: 52%
[3]
  pKi: 8.00
[4]
  pKi: 7.60
[5]
  pKi: 7.92

## Cc1ccc(C(C)(C)C)cc1Cc1ccc(C(=O)NNc2cc(C)c3c(C)nn(C)c3n2)o1 [Example J7, 5-[5-(tert-butyl)-2-methylbenzyl]-N′-(1,3,4-trimethyl-1H-pyrazolo[3,4-b]pyridin-6-yl)-2-furohydrazide]
[1]
  Huma % p. 30′: 57%
[2]
  Fem. t % rem. 30′: 9%
[3]
  pKi: 7.30
[4]
  pKi: 7.46
[5]
  pKi: 7.70
[6]
  Male t % p. 30′: 89%
[7]; [9]
  FR Fp.o.: 4%^2
[7]
  Tmax: 30 min

## Cc1cc(Cl)c(C(C)C)c(Oc2ccc(C(=O)NNc3cc(C)c4c(C)nn(C)c4n3)o2)c1 [Example I3, 5-(3-Chloro-2-isopropyl-5-methylphenoxy)-N′-(1,3,4-trimethyl-1H-pyrazolo[3,40b]pyridin-6-yl)-2-furohydrazide]
[1]
  Huma % p. 30′: 43%
[4]
  pKi: 5.24

## COc1cc(C)c(Cl)c(C)c1Cc1ccc(C(=O)NNc2cc(C)c3c(C)nn(C)c3n2)o1 [Example J1]
[4]
  pKi: 6.35
[6]
  Male t % p. 30′: 99% and 95%
[7]
  Tmax: 60 min

## COc1cc2c(cc1Oc1ccc(C(=O)NNc3cc(C)c4c(C)nn(C)c4n3)o1)C(C)(C)CC2=O [Example I5, 5-[(6-Methoxy-3,3-dimethyl-1-oxo-2,3-dihydro-1H-inden-5-yl)oxy]-N′-(1,3,4-trimethyl-1H-pyrazolo[3,4-b]pyridin-6-yl)-2-furohydrazide]
[1]
  Huma % p. 30′: 58%
[4]
  pKi: 5.92

## CC(=O)c1c(NNC(=O)c2ccc(Cc3cc4c(cc3C)C(C)(C)OC4(C)C)o2)nc2c(c(C)nn2C)c1C [Example E2, N-(5-acetyl-1,3,4-trimethyl-1H-pyrazolo[3,4-b]pyridin-6yl)-5-[(1,1,3,3,6-pentamethyl-1,3-dihydro-2-benzofuran-5-yl)methyl]-2-furohydrazide]
[1]
  Huma % p. 30′: 30%
[4]
  pKi: 6.52

## Cc1cc(NNC(=O)c2ccc(Oc3cc(C(C)(C)C)c(Br)cc3Br)o2)nc2c1c(C)nn2C [Example I12, 5-(2,4-Dibromo-5-tert-butyl-phenoxy)-furan-2-carboxylic acid N′-(1,3,4-trimethyl-1H-pyrazolo[3,4-b]pyridin-6-yl)-hydrazide]
[3]
  pKi: 6.59
[4]
  pKi: 6.78
[5]
  pKi: 5.94
